# A melting point compilation (Tetko et al.; mined from patent text by program, amines drawn as free bases though some values may be those of a salt)
row,melting point [°C],Compound
1,96 to 98,CCOC(=O)c1c(Cn2cnnc2)nc2sc(C)c(C)c2c1-c1ccc2c(c1)OCO2
2,162 to 167,CC(=O)c1ccc(S(=O)(=O)NCc2ccncc2)cc1
3,235 to 236,Cn1c(Nc2cccc(C(F)(F)F)c2)nc2c(-c3cccc(C(=O)NCCO)c3)cccc21
4,115 to 116,CSCCNC(N)=Nc1ccccc1N1CCOCC1
5,96,Cc1cccc(-c2c[nH]nc2-c2ccnc(-c3ccc(OCCN4CCCC4)cc3)c2)n1
6,151 to 152,Cc1cc(-c2coc3ccc(-c4nnc(C)o4)cc23)ccn1
7,159 to 160,CN(CC(=O)Nc1ccc2[nH]ncc2c1)Cc1ccccc1
8,112 to 115,N=C(CCCSc1nccc(NC(N)=NCC(F)(F)F)n1)NC(N)=O
9,159 to 163,CCCCN=C(O)c1c(Cl)c(Cl)c(Sc2ccccc2)c(Cl)c1C(=O)O
10,165 to 167,O=S1(=O)N=C(OCc2snc(Cl)c2Cl)c2ccccc21
11,133 to 135,COC(=O)c1ccc2nc3c(nc2c1)SC(C#N)=C(C#N)S3
12,89 to 90,CC1=NN(C)C(=O)C1(Br)C(=O)c1ccc(Cl)cc1Cl (centres undefined)
13,98 to 100,CCOC(=O)c1cn(C2CC2)c2c(F)c(C(C#N)C(=O)OCC)c(F)c(F)c2c1=O (centres undefined)
14,252,COc1cc(C(=O)c2ncc3ccc(N)cn23)ccc1[N+](=O)[O-]
15,135 to 138,CC1OC(n2cnc3c(N)nc(N)nc32)C(O)C1O (centres undefined)
16,112 to 130,CC(C)(C)OC(=O)NC(C(=O)NC1c2cc(C#N)ccc2OC(C)(C)C1O)c1ccccc1 (centres undefined)
17,75 to 87,CNC(=O)C1(Nc2nc(Nc3cc4c(cc3OC)CCN(CC(=O)N(C)C)CC4)ncc2Cl)CCCC1
18,224,Cn1c(=O)c(S(C)(=O)=O)c(N2CCN(C(=O)c3cccs3)CC2)c2ccccc21
19,100 to 102,CCOC(=O)c1cc(C)n(-c2cccc(C(C)=O)c2)c1-c1ccccc1
20,85 to 88,O=C(O)CC1Cc2ccccc2C1
21,193 to 194,CCCC(=O)c1ccc(C(CCC)CC(=O)Nc2cc(C(N)=O)ccc2C(C)(C)C)c(OC)c1 (centres undefined)
22,46 to 63,CN1CCN(C2=Nc3ccccc3Sc3ccccc32)C[C@H]1Cc1ccccc1
23,158 to 163,CCOC(=O)c1cn(-c2cc(N(C)C)c(F)cc2F)c2nc(Cl)c(F)cc2c1=O
24,93 to 94,COc1cc(CO)c(CO)cc1OCCCl
25,155 to 157,CC(C)c1nc(C(C)C)c(C(C)O)c(-c2ccc(F)cc2)c1-c1ccccc1 (centres undefined)

row,melting point [°C],Compound
1,82 to 85,CC(C)(C)OC(=O)NCCc1ccc(OCCC2Oc3cc([N+](=O)[O-])ccc3N(Cc3cccc(Cl)c3)C2=O)cc1 (centres undefined)
2,119 to 120,CCc1c(C(=O)c2cc(C)cc(C)c2)n(C/C=C/CN=[N+]=[N-])c(=O)[nH]c1=O
3,139 to 140,Clc1ccc2c(C3CCN(CCCCC4Cc5ccccc5C4)CC3)c[nH]c2c1
4,98 to 99,CCCCNCc1ccc(-c2ccccc2S(=O)(=O)NC(C)(C)C)cc1
5,282,CN(C)Cc1ccc2c(c1)nnn2Cc1c(Cl)c(Cl)cc2[nH]c(=O)c(=O)[nH]c12
6,57 to 58,COC(=O)CCc1conc1-c1ccc(Cl)c(F)c1
7,128 to 130,CCCc1nc(C(O)C(C)(C)C)c(C(N)=O)n1Cc1ccc(-c2ccccc2C(=O)C(=O)O)cc1 (centres undefined)
8,154 to 155,CC(C)Cc1csc(NC(=O)OC(C)(C)C)c1C(=O)O
9,82 to 84,CCCCCCCCCCCCCCCc1cc(OCC(COC(=O)NCCCCCn2cnnn2)Oc2cc(C)on2)no1 (racemic)
10,120 to 122,N#Cc1ccccc1Oc1cc(-n2cccc2)ccc1O
11,28 to 30,CCOC(=O)c1ccccc1-c1cc(-c2cccc(C(F)(F)F)c2)no1
12,138 to 140,CN1CS(=O)c2cccc(Br)c21 (centres undefined)
13,137 to 138,Cn1ncc(CC(=O)O)c1OCCCc1cn(-c2ccc(C(F)(F)F)cn2)nc1C1CCCCC1
14,263 to 266,COc1ccc2oc3ccc([N+](=O)[O-])cc3c2c1C(=O)Nc1cccnc1
15,109 to 110,CCC(Nc1ccc(OC)nc1)n1nnc2ccccc21 (centres undefined)
16,200 to 201,CCOC(=O)c1ncc2[nH]c3ccc(C4CC=CCC4)cc3c2c1C (centres undefined)
17,323 to 325,O=C(c1nccs1)c1cnn2c(-c3ccncc3)ccnc12
18,115 to 116,CCC(O)(C(=O)NC(C)c1ccccc1)c1cc2n(c(=O)c1CO)CCC21OCCO1 (centres undefined)
19,173 to 175,NC(=S)c1ncn(C2OC(COS(N)(=O)=O)C(O)C2O)n1 (centres undefined)
20,140 to 144,O=C(c1cccs1)c1cnn2c(-c3cccc(NCc4ccoc4)c3)ccnc12
21,73 to 74,CC1=CCC(O)(C(C)(C)Sc2ccccc2)CC1 (centres undefined)
22,117 to 118,O=[N+]([O-])C=C1NCCN1C/C=C\Cl
23,213 to 220,CCS(=O)(=O)c1sc(S(N)(=O)=O)cc1C(C)NC(C)=O (centres undefined)
24,235 to 236,CNC(=S)C1(c2cnc3ccccc3c2)CCCCC1=O (centres undefined)
25,228 to 230,COC(=O)c1ccc(C(=O)c2ccc(C(=O)OC)cc2)cc1

row,melting point [°C],Compound
1,179 to 185,Brc1ccc2c(c1)Cc1cc(I)ccc1-2
2,141 to 142,COc1cc2c(c3c1OC(C)(C)C3)C(c1cccc(C(=O)NCC(N)=O)c1)=NC(C)(C)C2
3,45 to 53,COc1ccc(CONC(=O)[C@@H](C(C)C)N(Cc2cccnc2)S(=O)(=O)c2ccc(OC)cc2)cc1
4,130 to 133,CNC1=NN(C(=O)c2cccc([N+](=O)[O-])c2)C(C)(C)S1
5,148 to 151,CC1(C)CCC(C)(C)c2cc(C(=O)C(=O)c3ccc(C(=O)O)cc3)ccc21
6,258 to 260,N#Cc1ncn2c(-c3cccnc3)ccnc12
7,121 to 123,CCC(CC)Oc1nc(C)nc(Nc2c(C)cc(C)cc2C)c1CO
8,101 to 103,CC(C)(C)OCCCNC(=O)c1nn(C2CCCCO2)cc1NC(=O)c1ccccn1 (centres undefined)
9,297 to 299,O=C(NCc1ccc(Cl)cc1)c1cnc2ccc(I)cc2c1O
10,92 to 95,COC(=O)c1ccc(/C=C(\C)c2ccc3c(c2)C(C)(C)CCO3)cc1
11,166 to 167,COCCCNC(=O)c1cc(C(=O)OC)c(O)c2ncc(Cc3ccc(F)cc3)cc12
12,98 to 100,O=c1cc(-c2ccccc2F)oc2ccccc12
13,237,N#CC1=C(c2ccco2)Nc2n[nH]cc2C1c1cccc2nonc12 (centres undefined)
14,188,O=C(c1ccc2c(c1)CCO2)N1Cc2cccnc2Nc2ccccc21
15,256,O=c1cc(-c2c(F)cccc2F)[nH]c(=O)n1-c1ccc(Cl)c(Cl)c1
16,180 to 181,CC(=O)Nc1ccc(OS(N)(=O)=O)cc1
17,109 to 111,CCCCCCCCCCCCCC(=O)Nc1cc(NC(=O)CCCCCCCCCCCCC)cc(C(=O)N(CC(=O)O)CC(=O)O)c1
18,154 to 158,CCCCOC(=O)C(CC(=O)O)NCCCN(C)C (centres undefined)
19,55 to 57,O=C(NCCO)OCc1ccccc1
20,229 to 230,CC(C)(CO)c1ccc2c(c1)OC(C(F)(F)F)C(C(=O)O)=C2 (centres undefined)
21,176 to 178,CNC(=O)c1ccc([C@@H]2C[C@H]3C=C(c4c[nH]c(-c5ccc(F)c(Cl)c5)c4-c4ccncc4)CCN3C2)cc1
22,174 to 176,CCc1ccc(Nc2nc3cc(NC(=O)c4ccccc4Nc4cccc(C(F)(F)F)c4)ccc3o2)cc1
23,161,Cc1ccc(OC(C)C(=O)c2cc(C(C)(C)C)c(O)c(C(C)(C)C)c2)c(-n2nc3ccccc3n2)c1 (centres undefined)
24,180 to 182,Clc1ccc2c(c1)C(=C1CCN(CC3CCC3)CC1)c1ccccc1S2
25,111 to 114,COc1cc(N2CCC(=O)CC2)ncn1

row,melting point [°C],Compound
1,69 to 70,O=C(CCCCC1(C(=O)O)CCC1)CCCCC1(C(=O)O)CCC1
2,237 to 238,CCOc1cc2c(c3c1OC(C)(C)C3)C(c1cccc(N3C(=O)NC(C)(C)C3=O)c1)=NC(C)(C)C2
3,172 to 173,C[C@@H]1[C@H](c2ccccc2)OC(=O)N1C(=O)CC1c2ccccc2C=Cc2ccccc21
4,132,O=C(O)Cc1cc(C(=O)c2ccccc2)cc(Br)c1O
5,142,CC[C@H](CC(=O)NC(=O)OC)Nc1ccc(C(F)(F)F)cc1
6,294 to 296,COc1cc(OC)c(S(=O)(=O)Cl)cc1-c1nc2nccnc2[nH]1
7,156 to 187,CCOC(=O)c1c(Nc2ccc(Cl)cc2C)n[nH]c1C
8,140 to 143,O=CNC1Cc2cccc3c2N(CCC3)C1=O (centres undefined)
9,211,C=C(c1ccc(N2CCCC2)cc1)c1ccc(N2CCCC2)cc1
10,199 to 201,O=C1c2c(-c3ccccc3)cc(CO)nc2OCCN1Cc1cc(C(F)(F)F)cc(C(F)(F)F)c1
11,119 to 121,COC1C(N(C)S(C)(=O)=O)c2cc(OCc3ccccc3)ccc2OC1(C)C (centres undefined)
12,157,CCOCc1nc2c(N)nc3cc(OCCCN4CCCC4=O)ccc3c2n1CCCCNS(C)(=O)=O
13,175 to 176,O=Cc1cnc(-c2ccc(C(CC3CCOCC3)c3ccc(S(=O)(=O)C4CC4)cc3)[nH]2)s1 (centres undefined)
14,151 to 152,O=C(CC(=S)N1CCC[C@H]1C(=O)O)c1ccccc1
15,112,CSc1nc2c(n1-c1ccccc1)CCCC2
16,105 to 107,O=c1cc(-c2ccoc2)c2ccc(COc3cc(F)cc(-c4ccccc4)c3)cc2o1
17,106 to 108,NCCc1cn(S(=O)(=O)c2ccccc2Cl)c2cccnc12
18,> 275,COC(=O)Nc1nc(-c2ccccc2)c(-c2nc3ccccc3c(=O)n2-c2ccc(Cl)cc2)s1
19,260 to 263,O=C(O)c1ccn(-c2ccc(C(=O)O)c(Cl)c2)n1
20,88 to 89,N#Cc1cc(Br)c(OC(=O)OCOC(=O)COc2ccc(Cl)cc2Cl)c(Br)c1
21,136 to 138,COCCN1C(=O)CCCc2c1ccc(Nc1ncc(Cl)c(Nc3ccc(N4CCOCC4)cc3OC)n1)c2OC
22,132 to 133,CC(=O)OCCCCCn1ccc(=O)c(O)c1C

row,Compound,melting point [°C]
1,Clc1ccc(N2CCC3(CCNCC3)CC2)cc1,95.5 to 97.4
2,N[C@@H]1CN2CCC1CC2,118 to 121
